In test [1] the test system is murine and human TNBC cells. Description: HMGB1 and LDH Release. The format is cell-based, mouse. On the procedure:
FIGS. 6A-6E. Ivermectin induces autophagy. FIG. 6A: Ivermectin induces autophagy in breast cancer cells. MDA-MB-231 GFL-LC3 cells were treated with different doses of Ivermectin for 24 h and formation of green fluorescent puncta was evaluated by confocal fluorescence microscopy. FIG. 6B: Western blot confirming the induction of autophagy in both murine and human breast cancer cells, as evidenced by LC3 lipidation and autophagic degradation of p62(SQSTM1). […] MDA-MB-231 cells (triplicates) were treated with different doses of Ivermectin for up to 24h and surface stained with antibody-specific for the human M6P receptor versus isotype control. Similarly, 4T1.2 and MB231 cells were treated with different doses of Ivermectin for 4-24 h, and were stained with an antibody specific for both human and mouse CRT versus isotype control. Mean fluorescent intensity (MFI) values and ratios versus isotype control were calculated after gating on live/membrane-intact cells. FIG. 6D: Ivermectin (32 μM) induces release of HMGB1 from murine and human TNBC cells (triplicates). […] Asterisk (*) indicates p<0.05 relative to untreated or Ivermectin alone controls, respectively.
HMGB1 and LDH Release. HMGB1 and LDH release were evaluated using an HMGB1 detection kit (IBL International, ST51011) and the CYTOTOX96® Non Radioactive Cytotoxicity Assay (Promega, G1780),following manufacturers' instructions.

The target in test [2] is T1, P2X4/P2X7/Pannexin-1 channels (Mus musculus, UniProt Q9JJX6).
T1 construct: endogenous in cells; host or cells: 4T1.2 mouse breast cancer cells
T1 sequence (Q9JJX6 1-388): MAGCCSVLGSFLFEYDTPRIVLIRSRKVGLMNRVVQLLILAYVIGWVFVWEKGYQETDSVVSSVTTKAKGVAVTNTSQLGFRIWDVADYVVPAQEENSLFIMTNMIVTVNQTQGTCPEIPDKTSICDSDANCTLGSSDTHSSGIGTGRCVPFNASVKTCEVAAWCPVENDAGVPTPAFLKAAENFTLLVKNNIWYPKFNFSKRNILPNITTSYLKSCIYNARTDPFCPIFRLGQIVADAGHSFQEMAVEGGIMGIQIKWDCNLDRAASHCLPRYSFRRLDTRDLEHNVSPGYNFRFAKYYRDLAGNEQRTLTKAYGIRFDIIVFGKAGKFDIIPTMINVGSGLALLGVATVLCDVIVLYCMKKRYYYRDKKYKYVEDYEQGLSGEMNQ
The test can be described thus: Membrane permeabilization to YOPRO-1. The format is cell-based. Particulars: 4T1.2 cells, Ivermectin 0.5-32 μM, ATP 0.3-3 mM, 30 min. The method, then: FIGS. 3A-3G. Dual roles of ATP and purinergic signaling in Ivermectin's killing. FIG. 3A: Depletion of extracellular ATP with Apyrase (2500 μunits/ml) exacerbates killing of 4T1.2 cell by Ivermectin. FIG. 3B: Extracellular Ca^2− and ATP contain Ivermectin-induced cell swelling. 4T1.2 cells were treated with 32 μM Ivermectin for 4 h in the presence of 1 mM EDTA or 2500 μunits/ml Apyrase. FIG. 3C: Ivermectin (0.5-32 μM) and high concentrations of extracellular ATP (0.3-3 mM) synergistically open pannexin-1 channels and permeabilize the membrane on live cells (7AAD-positive dead cells were gated out). 4T1.2 cells were treated for 30 min as indicated in the presence of 7 AAD and 5 μM YOPRO-1. FIG. 3D: Analysis of supernatants from Ivermectin-treated murine and human TNBC cells showing rapid release of ATP followed by its transient depletion. Depletion of extracellular ATP with Apyrase (2500 μunits/ml) was used as a positive control. FIG. 3E: Analysis of membrane-proximal ATP levels using cancer cells engineered to express a membrane-bound Luciferase. […] FIG. 3G: The P2X7-specific inhibitor KN-62 (1-10 μM) blocks Ivermectin cytotoxicity (IVM 8-32 μM, 4-48 h treatments). Asterisk (*) indicates p<0.05 relative to untreated or Ivermectin alone controls, respectively.
FIGS. 10A-10L. Extracellular Dual roles of ATP and purinergic signaling in Ivermectin's killing. 4T1.2 cells were treated with Ivermectin for 4 h in the presence of different inhibitors at μM concentrations as indicated. FIG. 10A: The non-specific P2 purinergic receptor inhibitor Suramin (4-400 μM) exacerbates Ivermectin-induced cell death. FIG. 10B: Inhibition of extracellular ATPases with PSB 069 protects against Ivermectin cytotoxicity. FIG. 10C: Blockade of pannexin-1 channels with Panx-1 mimetic blocking peptide (Anaspec) and Probenecid at μM concentrations as indicated exacerbates killing. […] FIG. 10E: ATP plays a transiently protective role only in the mouse but not human breast cancer cells. 4T1.2 and MDA-MB-231 cells were treated with 32 μM Ivermectin for 4 h in the presence of ATP at mM concentrations as indicated. FIG. 10F: qPCR showing up-regulation of P2X4 and P2X7 receptors on several murine cancer cell lines, including 4T1.2 and DD-Her2/neu (breast), and B16 (melanoma). […] Expression of P2X and P2Y purinergic receptors, NOX family members, GABA, and Glycine receptors was analyzed using publicly available breast cancer cell lines datasets. Statistically significant (p<0.05) up-regulation and down-regulation in breast cancer versus normal cells is shown in red and blue, respectively. FIG. 10H: Correlation between sensitivity to Ivermectin and ATP across various human cancer cell lines. Cancer cells were treated for 24 h with 3 mM ATP or Ivermectin at 16 and 32 μM doses as indicated. […]

For `CC[C@H](C)[C@H]1O[C@]2(CC[C@@H]1C)C[C@@H]1C[C@@H](C/C=C(\C)[C@@H](O[C@H]3C[C@H](OC)[C@@H](O[C@H]4C[C@H](OC)[C@@H](O)[C@H](C)O4)[C@H](C)O3)[C@@H](C)/C=C/C=C3\CO[C@@H]4[C@H](O)C(C)=C[C@@H](C(=O)O1)[C@]34O)O2` [Ivermectin], the HMGB1 release entry in test [1] (32 μM) is given as “potent inducer of HMGB1 release”. The LDH release result in test [1] (normalized to maximum release (lysis)) was “induces release of cytosolic LDH”. Further, the “opening of channels / permeabilization to YOPRO-1 with ATP” value in test [2] is on record as “synergized with ATP in opening P2X4/P2X7/Pannexin-1 channels”.

The record behind these values is patent publication US11058700B2, “Macrocyclic lactones and uses thereof as modulators of purinergic receptors” (City of Hope, priority 2015, dated 2021).
